Test results reported in the PolyMetriX glass transition set.
± gives the standard deviation of the reports.

glass transition temperature [°C] | SMILES
285.00 | *Nc1ccc(Br)cc1-c1ccc(NC(=O)c2ccc(C(*)=O)cc2)cc1 (repeat unit)
6.00 | *CC(*)(F)C(=O)OCCC(F)(F)C(F)(F)C(F)(F)C(F)(F)F (repeat unit)
162 | *c1ccc(Oc2ccc(C(C)(C)c3ccc(Oc4ccc(S(*)(=O)=O)cc4)cc3)cc2)s1 (repeat unit)
138.00 | *Oc1ccc(CC2(Cc3ccc(*)cc3)c3ccccc3-c3ccccc32)cc1 (repeat unit)
98.00 | *CC(*)(C)C(=O)OCCN(CC)c1ccc([N+](=O)[O-])cc1 (repeat unit)
-10.00 | *OCC(F)(F)C(F)(F)C(F)(F)COc1nc(F)c(F)c(OCC(F)(F)C(F)(F)C(F)(F)COc2c(F)c(*)nc(F)c2F)c1F (repeat unit)
245.00 | *c1ccc(Oc2ccc(N3C(=O)c4ccc(Oc5ccc6ccc(Oc7ccc8c(c7)C(=O)N(*)C8=O)cc6c5)cc4C3=O)cc2)cc1 (repeat unit)
180.50 | *CC(*)(C)C(=O)OC1CC2CCC1(C)C2(C)C (repeat unit)
145.00 | *CC(*)C(=O)Oc1c(Cl)c(Cl)c(Cl)c(Cl)c1Cl (repeat unit)
33.00 | */C=C/c1cc(OCCCCCCCCCCCCCCCC)c(/C=C/c2ccc(*)cc2)cc1OCCCCCCCCCCCCCCCC (repeat unit)
65.00 | *CCCS(=O)(=O)CCCCS(=O)(=O)CCCOC(=O)c1cccc(C(=O)O*)c1 (repeat unit)
-78.00 | *O[Si](*)(C)OCCOCCOCCOCCOCCOCCOCCOCCOC (repeat unit)
112.50 | *CC(*)(Cl)C(=O)OCCCCCCOc1ccc(C(=O)Oc2ccc(OCCCC)cc2)cc1 (repeat unit)
342.00 | *Oc1ccc(C2(c3ccc(OC(=O)c4ccc(C(*)=O)cc4)cc3)c3ccccc3Cc3ccccc32)cc1 (repeat unit)
113.00 | *Oc1ccc(C(c2ccc(Oc3c(F)c(F)c(COC(c4cccc(C(OCc5c(F)c(F)c(*)c(F)c5F)(C(F)(F)F)C(F)(F)F)c4)(C(F)(F)F)C(F)(F)F)c(F)c3F)cc2)(C(F)(F)F)C(F)(F)F)cc1 (repeat unit)
311.00 | *c1cccc(N2C(=O)c3cccc(Oc4c(C)cc(-c5cc(C)c(Oc6cccc7c6C(=O)N(*)C7=O)c(C)c5)cc4C)c3C2=O)c1 (repeat unit)
241.00 | *c1ccc(Oc2ccc(-c3ccc(Oc4ccc(-c5nc(*)nc(-c6ccccc6)n5)cc4)cc3)cc2)cc1 (repeat unit)
64.00 | *CC(CCCC)COC(=O)NC(=O)c1cccc(C(=O)NC(=O)O*)c1 (repeat unit)
90.00 | *c1ccc(-c2ccc3c(c2)C(CCCCCCC#N)(CCCCCCC#N)c2cc(*)ccc2-3)cc1 (repeat unit)

glass transition temperature [°C] | SMILES
94.00 | *CC(C)(C)COC(=O)Nc1ccc(Cc2ccc(NC(=O)O*)cc2)cc1 (repeat unit)
367.00 | *C(=O)c1cc2c(cc1Cl)C(=O)N(c1cc(Cl)c(N3C(=O)c4cc(*)c(Cl)cc4C3=O)cc1Cl)C2=O (repeat unit)
180.00 | *c1cc(-c2nc3ccccc3[nH]2)cc(-n2c(=O)c3cc4c(=O)n(*)c(=O)c4cc3c2=O)c1 (repeat unit)
240.00 | *Oc1ccc(C(=O)Nc2ccc(Cc3ccc(NC(=O)c4ccc(Oc5ccc(C(=O)c6ccc(S(=O)(=O)c7ccc(C(=O)c8ccc(*)cc8)cc7)cc6)cc5)cc4)cc3)cc2)cc1 (repeat unit)
-5.00 | *C/C=C/C[Si](*)(CCCOc1ccccc1)c1ccccc1 (repeat unit)
86.00 | *c1ccc(C(=O)OCCCCCCCCOC(=O)c2ccc(-c3nnc(*)s3)cc2)cc1 (repeat unit)
259.00 | *c1ccc2c(c1)C(=O)N(c1ccc(S(=O)(=O)c3ccc(N4C(=O)c5ccc(C(F)(F)C(F)(F)C(*)(F)F)cc5C4=O)cc3)cc1)C2=O (repeat unit)
367.43 ± 3.4 | *c1ccc(-c2nc3cc(-c4ccc5nc(-c6ccccc6)c(*)nc5c4)ccc3nc2-c2ccccc2)cc1 (repeat unit) [poly(phenylquinoxaline)]
16.00 | *CCCCCC(c1ccc(O)cc1)C(*)c1ccc(O)cc1C (repeat unit)
-40.00 | *CC(*)C(=O)OCCOCCOC(F)(F)C(F)F (repeat unit)
215.00 | *c1cc(C(c2ccc(OCCN(C)c3ccc(/C=C/C4=CC(=C(C#N)C#N)CC(C)(C)C4)cc3)c(N3C(=O)c4ccc(Oc5ccc6c(c5)C(=O)N(*)C6=O)cc4C3=O)c2)(C(F)(F)F)C(F)(F)F)ccc1OCCN(C)c1ccc(/C=C/C2=CC(=C(C#N)C#N)CC(C)(C)C2)cc1 (repeat unit)
30.00 | *CC1CCC(COC(C)OC(=O)c2cccc(C(=O)OC(C)O*)c2)CC1 (repeat unit)
-22.00 | *CCCCCCOC(=O)OCCCCCCCCCCCCOC(=O)OCCCCCCOc1ccc(Oc2ccc(O*)cc2)cc1 (repeat unit)
396.00 | *Oc1ccc(C2(c3ccc(Oc4ccc5c(=O)n6c7cc(Oc8ccc9c(c8)nc8c%10ccc(*)c%11cccc(c(=O)n98)c%11%10)ccc7nc6c6cccc4c56)cc3)c3ccccc3-c3ccccc32)cc1 (repeat unit)
234.00 | *C(=O)c1ccc2c(c1)C(=O)N(c1ccc(OCC(C)(C)COc3ccc(N4C(=O)c5ccc(*)cc5C4=O)cc3)cc1)C2=O (repeat unit)
282.00 | *c1ccc(OC(=O)c2ccc(C(=O)Oc3ccc(C4(*)c5ccccc5C(=O)N4C)cc3)cc2)cc1 (repeat unit)
50.50 | *CCCCCCCCCOC(=O)c1ccc(-c2ccc(C(=O)O*)cc2)cc1 (repeat unit)
19.40 | *CC(*)(C)C(=O)OCc1ccc(Cl)cc1Cl (repeat unit)

Further lines, the molecule ahead of its results:

SMILES | glass transition temperature [°C]
*CCOCCOCCOCCOC(=O)Nc1ccc(Cc2ccc(NC(=O)O*)cc2)cc1 (repeat unit) | 37.00
*CCc1ccc(*)o1 (repeat unit) | 25.50
*/C=C/c1nc(/C=C/c2ccc3c(c2)c2cc(*)ccc2n3CCCCCC)c(C#N)c(/C=C/c2ccc(N(c3ccccc3)c3ccccc3)cc2)c1C#N (repeat unit) | 134.00
*C1(C)CC(*)(C)C(=O)N(C)C1=O (repeat unit) | 170.00
*CCCCCCN1C(=O)C(=O)N(*)C1=O (repeat unit) | 55.00
*CC(*)c1ccc(C(O)CCN2CCCCC2)cc1 (repeat unit) | 54.00
*CC(*)C(=O)OC1CC(C)CC(C)(C)C1 (repeat unit) | 15.00
*=NP(=NP(=NC(=*)Oc1ccc(C(F)(F)F)cc1)(Oc1ccc(C(F)(F)F)cc1)Oc1ccc(C(F)(F)F)cc1)(Oc1ccc(C(F)(F)F)cc1)Oc1ccc(C(F)(F)F)cc1 (repeat unit) | 31.00
*c1ccc2c(c1)C(=O)N(c1ccc(S(=O)(=O)c3ccc(S(=O)(=O)c4ccc(S(=O)(=O)c5ccc(N6C(=O)c7ccc(C(*)(C(F)(F)F)C(F)(F)F)cc7C6=O)cc5)cc4)cc3)cc1)C2=O (repeat unit) | 327.00
*CC(*)C(=O)Nc1ccccc1Cl (repeat unit) | 63.00
*N=P(N=P(N=S(*)(=O)NC)(NC)NC)(NC)NC (repeat unit) | 22.00
*CC(*)C(=O)OCCCCOC(=O)c1ccc(OC(=O)c2ccc(C#N)cc2)cc1 (repeat unit) | 40.00
*CCOCO* (repeat unit) | -64.00
*CC(*)c1ccncc1 (repeat unit) [Poly(p-vinyl pyridine) ] | 142 ± 5.4
*CCOC(=O)C1=CCCCC(N2CCCC2)=C1C(=O)O* (repeat unit) | 352.50
*CCc1ccc(*)s1 (repeat unit) | 26.00

SMILES | glass transition temperature [°C]
*CCCCCCN1C(=O)C(=O)N(c2ccc(CCc3ccccc3N3C(=O)C(=O)N(*)C3=O)cc2)C1=O (repeat unit) | 137.00
*CC(*)C(=O)OCCC (repeat unit) [Poly(n-propyl acrylate) ] | -41.33 ± 4
*c1ccc(Oc2ccc(-c3ccc(Oc4ccc(N5C(=O)c6ccc(Oc7ccc(Sc8ccc(Oc9ccc%10c(c9)C(=O)N(*)C%10=O)cc8)cc7)cc6C5=O)cc4)cc3)cc2)cc1 (repeat unit) | 205.00
*CC(*)c1ccc(C(O)C(F)(F)F)cc1 (repeat unit) | 110.00
*NCCCCCCNc1nc(*)nc(-c2ccccc2)n1 (repeat unit) | 95.00
*CCC(F)(F)C(*)(F)F (repeat unit) | -108.00
*Oc1ccc(C(=O)NNC(=O)c2cccc(C(=O)NNC(=O)c3ccc(OC(=O)c4cccc(C(*)=O)c4)cc3)c2)cc1 (repeat unit) | 180.00
*CCCCCCOC(=O)C(CCCCCCP(=O)(OCC)OCC)C(=O)OCCCCCCOc1ccc(-n2on2-c2ccc(O*)cc2)cc1 (repeat unit) | 9.00
*Oc1ccc(C(c2ccc(OC(*)=O)cc2)(C(F)(F)F)C(F)(F)F)cc1 (repeat unit) | 176.00
*CC(*)OC(=O)c1cccc(C)c1 (repeat unit) | 49.00
*C(F)(F)C(*)(F)OC(F)(F)C(F)(F)C(F)(F)C(F)(F)F (repeat unit) | -10.00
*c1ccc2c(c1)C(=O)N(c1ccc(Oc3ccc4ccc(Oc5ccc(N6C(=O)c7ccc(C(*)(C(F)(F)F)C(F)(F)F)cc7C6=O)cc5)cc4c3)cc1)C2=O (repeat unit) | 302.30
*CCCCCCCCCCOc1ccc(CCc2ccc(O*)cc2C)cc1 (repeat unit) | -3.00
*CCSSSSCCO* (repeat unit) | -40.00
*C(=O)Nc1ccc(Cc2ccc(NC(=O)c3ccc4c(c3)C(=O)N(c3c(C)cc(-c5cc(C)c(N6C(=O)c7ccc(*)cc7C6=O)c(C)c5)cc3C)C4=O)c(C)c2)cc1C (repeat unit) | 329.00
